PMC6629693 (Scientific Reports, 2019)
Entries after “also recorded” stand apart in the source; their conditions may differ. Read-outs that look alike come from different tables or passages of the source.

What was measured:
[1] = molecular target: D206N HtxB (Stutzerimonas stutzeri, UniProt O69061, D238N); assay: biochemical; assay type: binding, Pseudomonas stutzeri
[2] = molecular target: T1, WT HtxB (Stutzerimonas stutzeri, UniProt O69061); conditions: pH 5
[3] = molecular target: T2, D206A HtxB (Stutzerimonas stutzeri, UniProt O69061, D238A)
T2 sequence (O69061 34-298 D238A): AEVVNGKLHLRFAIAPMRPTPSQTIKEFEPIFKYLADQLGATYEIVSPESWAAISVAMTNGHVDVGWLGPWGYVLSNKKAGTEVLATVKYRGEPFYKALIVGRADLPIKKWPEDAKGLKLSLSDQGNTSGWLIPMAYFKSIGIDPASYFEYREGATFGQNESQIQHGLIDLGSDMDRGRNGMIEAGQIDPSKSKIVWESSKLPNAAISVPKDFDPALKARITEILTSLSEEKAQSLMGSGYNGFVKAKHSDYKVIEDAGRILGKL

[4] = molecular target: T1, WT HtxB; conditions: 10 mM phosphite, 1 mM HtxB
[5] = molecular target: T2, D206A HtxB; conditions: 10 mM phosphite, pH range 4-9
[6] = Fig. 1; no reference given; cited from earlier work
[7] = molecular target: HtxB; conditions: cited from earlier work
[8] = molecular target: T1, WT HtxB; assay: biochemical
[9] = molecular target: T2, D206A HtxB; assay: biochemical

T1 sequence (O69061 34-298): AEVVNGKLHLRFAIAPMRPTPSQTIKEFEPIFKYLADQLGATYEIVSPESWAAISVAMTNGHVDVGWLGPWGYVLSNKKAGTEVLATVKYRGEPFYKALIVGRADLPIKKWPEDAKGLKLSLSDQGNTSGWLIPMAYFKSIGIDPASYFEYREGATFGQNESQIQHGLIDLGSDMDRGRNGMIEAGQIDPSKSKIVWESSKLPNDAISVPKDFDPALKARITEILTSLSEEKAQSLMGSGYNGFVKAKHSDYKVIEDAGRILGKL
Chain of D206N HtxB (O69061 34-298 D238N limits assumed): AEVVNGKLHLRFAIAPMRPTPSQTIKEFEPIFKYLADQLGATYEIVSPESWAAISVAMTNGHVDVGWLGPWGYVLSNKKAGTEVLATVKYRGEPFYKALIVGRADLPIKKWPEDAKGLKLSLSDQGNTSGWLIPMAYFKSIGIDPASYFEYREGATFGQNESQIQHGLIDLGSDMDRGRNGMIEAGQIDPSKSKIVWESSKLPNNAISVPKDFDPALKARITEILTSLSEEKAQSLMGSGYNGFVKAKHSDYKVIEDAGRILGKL

Compound	Kd [1]	Kd ([1]; read-out: Calculated Kd, pH 5)	fold lower affinity than hypophosphite at the same pH [2]	binding (in words) ([3]; pH 7.4)	Kd ([3]; read-out: Calculated Kd, pH 5)	pH of maximal line broadening ([4]; pH 9-4)	linebroadening of the 31P peak (in words) ([4]; reducing pH from 9 to 4)	linebroadening of the 31P peak (in words) [5]	pKa2 [6]	Kd ([7]; pH 7.4)	Kd [8]	Kd [9]	ligand concentration at which protein was not saturated in full titration ([1]; 50 mM HEPES pH 7.4)	binding (in words) ([1]; 50 mM HEPES pH 7.4, 100 mM phosphate)	binding (in words) [7]
O=[PH](O)O [phosphite]	> 100 mM	> 100 mM	ca. 1000 ×	No evidence of D206A HtxB binding	> 100 mM	6	significant linebroadening	did not show significant linebroadening	1.3	> 10 mM	1.74 mM	> 100 mM	–	–	–
phosphate	–	–	–	–	–	–	–	–	–	–	–	–	> 100 mM	weakly; also recorded: incredibly weak	does not bind
